Results on six molecules are retold here after US7932284B2, “Indole sulfonamide modulators of progesterone receptors” (Eli Lilly and Company, priority 2006, dated 2011).

In test [1] the target is T1, human AR (androgen receptor) (Homo sapiens, UniProt P10275).
T1 construct: expressed in transfected cells; host or cells: HEK293
T1 sequence (P10275 1-920): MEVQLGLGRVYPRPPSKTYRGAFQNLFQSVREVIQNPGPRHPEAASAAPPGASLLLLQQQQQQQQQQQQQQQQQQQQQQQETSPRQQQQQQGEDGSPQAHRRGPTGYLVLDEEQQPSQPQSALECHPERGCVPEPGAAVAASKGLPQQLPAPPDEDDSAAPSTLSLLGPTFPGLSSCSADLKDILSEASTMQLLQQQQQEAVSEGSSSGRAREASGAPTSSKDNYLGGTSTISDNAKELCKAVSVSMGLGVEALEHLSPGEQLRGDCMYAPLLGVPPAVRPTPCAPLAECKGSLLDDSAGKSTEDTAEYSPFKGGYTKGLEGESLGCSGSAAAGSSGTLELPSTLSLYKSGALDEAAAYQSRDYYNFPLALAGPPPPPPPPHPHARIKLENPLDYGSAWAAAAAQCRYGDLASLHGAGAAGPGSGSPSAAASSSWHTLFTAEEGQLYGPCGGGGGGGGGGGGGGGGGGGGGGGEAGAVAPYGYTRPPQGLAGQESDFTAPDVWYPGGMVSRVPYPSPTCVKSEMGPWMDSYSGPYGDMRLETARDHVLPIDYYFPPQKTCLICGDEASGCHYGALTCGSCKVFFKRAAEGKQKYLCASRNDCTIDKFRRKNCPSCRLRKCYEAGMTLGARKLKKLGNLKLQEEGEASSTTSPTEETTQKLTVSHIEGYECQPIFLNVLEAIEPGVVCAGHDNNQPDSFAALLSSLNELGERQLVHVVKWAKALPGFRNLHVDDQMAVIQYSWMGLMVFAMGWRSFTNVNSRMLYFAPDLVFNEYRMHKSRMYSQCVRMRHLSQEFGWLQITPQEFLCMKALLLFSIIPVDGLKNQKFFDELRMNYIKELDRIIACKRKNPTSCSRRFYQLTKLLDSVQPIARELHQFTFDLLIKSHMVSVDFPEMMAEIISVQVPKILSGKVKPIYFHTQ
Kind of test: AR competition binding assay (HEK293 cell lysate). To be noted: 0.36 nM 3H-methyltrienolone, 293-AR lysate. As for the experimental part: (§1) Cell lysates from HEK293 cells overexpressing human GR (glucocorticoid receptor), AR (androgen receptor), MR (mineralocorticoid receptor) or PR (progesterone receptor) are used for competition binding assays to determine Ki values for compounds of interest. Briefly, competition binding assays are run in a buffer containing 20 mM HEPES, pH 7.6, 0.2 mM EDTA, 75 mM NaCl, 1.5 mM MgCl2, 20% glycerol, 20 mM sodium molybdate, 0.2 mM DTT, 20 ug/ml aprotinin, and 20 ug/ml leupeptin, using either 0.3 nM ^3H-dexamethasone for GR binding, 0.36 nM ^3H-methyltrienolone for AR binding, 0.25 nM ^3H-aldosterone for MR binding, or 0.29 nM ^3H-methyltrienolone for PR binding, and either 20 ug 293-GR lysate, 22 ug 293-AR lysate, 20 ug 293-MR lysate or 40 ug 293-PR lysate per well. Competing compounds are added at various concentrations in half-log increments. Non-specific binding is determined in the presence of 500 nM dexamethasone for GR binding, 500 nM aldosterone for MR binding, or 500 nM methyltrienolone for AR and PR binding. The binding reaction (140 μl) is incubated overnight at 4° C., then 70 μl of cold charcoal-dextran buffer (containing per 50 ml of assay buffer, 0.75 g of charcoal and 0.25 g of dextran) is added to each reaction. Plates are mixed 8 minutes on an orbital shaker at 4° C. Plates are then centrifuged at 3,000 rpm at 4° C. for 10 minutes. An aliquot of 120 μl of the mixture is transferred to another 96-well plate and 175 μl of Wallac Optiphase “Hisafe 3” scintillation fluid is added to each well. Plates are sealed and shaken vigorously on an orbital shaker. After an incubation of 2 hrs, plates are read in a Wallac Microbeta counter. […] The Kd for ^3H-dexamethasone for GR binding, ^3H-methyltrienolone for AR binding, ^3H-aldosterone for MR binding, or ^3H-methyltrienolone for PR binding, is determined by saturation binding. The IC50 values for compounds are converted to Ki using Cheng-Prusoff equation and the Kd determined by saturation binding assay.

Test [2] concerns the target T2, human GR (glucocorticoid receptor) (Homo sapiens, UniProt P04150).
T2 construct: expressed in transfected cells; host or cells: HEK293
T2 sequence (P04150 1-777): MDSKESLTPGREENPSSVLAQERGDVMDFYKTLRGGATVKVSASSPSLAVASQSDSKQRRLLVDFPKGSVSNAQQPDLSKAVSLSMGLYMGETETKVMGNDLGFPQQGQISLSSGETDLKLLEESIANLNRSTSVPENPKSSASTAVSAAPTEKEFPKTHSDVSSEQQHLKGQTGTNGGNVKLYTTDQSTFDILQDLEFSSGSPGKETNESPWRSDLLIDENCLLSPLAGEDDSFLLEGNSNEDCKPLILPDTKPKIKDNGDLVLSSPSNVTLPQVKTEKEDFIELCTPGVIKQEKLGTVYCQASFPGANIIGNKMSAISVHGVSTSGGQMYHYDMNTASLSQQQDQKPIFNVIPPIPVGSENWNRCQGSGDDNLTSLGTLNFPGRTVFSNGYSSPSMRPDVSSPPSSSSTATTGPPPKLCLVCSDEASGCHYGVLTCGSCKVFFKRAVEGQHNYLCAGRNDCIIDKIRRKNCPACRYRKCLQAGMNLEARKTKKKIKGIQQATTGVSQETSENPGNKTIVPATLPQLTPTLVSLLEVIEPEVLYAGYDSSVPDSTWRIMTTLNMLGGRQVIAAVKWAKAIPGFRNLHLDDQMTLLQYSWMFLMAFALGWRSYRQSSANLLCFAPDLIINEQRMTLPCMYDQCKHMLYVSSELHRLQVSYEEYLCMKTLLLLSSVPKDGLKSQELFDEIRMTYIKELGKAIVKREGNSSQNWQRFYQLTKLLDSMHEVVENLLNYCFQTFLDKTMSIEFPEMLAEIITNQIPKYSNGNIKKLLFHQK
In words: GR competition binding assay (HEK293 cell lysate). To be noted: 0.3 nM 3H-dexamethasone, 293-GR lysate. The procedure:
as §1

The Ki is a dissociation constant, usually derived from enzyme kinetics or from competition with a known ligand. High values mean a looser hold on the target, low ones a stronger hold on the target.

On to `COc1ccc(-c2cn(C(C)C)c3cc(NS(C)(=O)=O)ccc23)cc1C` [Example 86, N-[1-Isopropyl-3-(4-methoxy-3-methyl-phenyl)-1H-indol-6-yl]-methanesulfonamide], for which the Ki in test [1] and in test [2] was over 1 µM throughout.

For the molecule `CC(C)Cn1cc(-c2ccc(C#N)cc2)c2ccc(NS(C)(=O)=O)cc21` [Example 29, N-[3-(4-Cyano-phenyl)-1-isobutyl-1H-indol-6-yl]-methanesulfonamide], the Ki in test [1] and in test [2] was 0.1 to 0.5 µM in each case.

With `CC(C)n1cc(-c2ccc3c(cnn3C)c2)c2ccc(NS(C)(=O)=O)cc21` [Example 107, N-[1-Isopropyl-3-(1-methyl-1H-indazol-5-yl)-1H-indol-6-yl]-methanesulfonamide], the Ki in test [1] and in test [2] was over 1 µM throughout.

Turning to `Cn1cc(-c2ccc([N+](=O)[O-])cc2)c2ccc(NS(C)(=O)=O)cc21` [Example 30, N-[1-Methyl-3-(4-nitro-phenyl)-1H-indol-6-yl]-methanesulfonamide], the Ki in test [1] and in test [2] was over 1 µM throughout.

Regarding `CC(C)n1cc(-c2ccc3c(c2)COC3=O)c2ccc(NS(C)(=O)=O)cc21` [Example 97, N-[1-Isopropyl-3-(1-oxo-1,3-dihydro-isobenzofuran-5-yl)-1H-indol-6-yl]-methanesulfonamide], the Ki in test [1] and in test [2] was over 1 µM throughout.

As to `CS(=O)(=O)Nc1ccc2c(-c3ccc(C#N)cc3)cn(Cc3ccccc3)c2c1` [Example 72, N-[1-Benzyl-3-(4-cyano-phenyl)-1H-indol-6-yl]-methanesulfonamide], the Ki in test [1] is over 1 µM; in test [2], 0.05 to 0.1 µM.
